Source: patent US6855843B2, “Inhibitors of α4 mediated cell adhesion” (Tanabe Seiyaku Co., Ltd., priority 1998, dated 2005)

Assays:
[1] = molecular target: T1, α4β7 (adhesion of RPMI cells to CS-1) (Homo sapiens, UniProt P13612+P26010); assay: RPMI-CS-1 cell adhesion assay; assay type: cell-based; details: adhesion of RPMI B-cell line (expresses α4β7) to CS-1 peptide coated microwells; read-out: RPMI-CS-1 IC50 value range
T1 construct: endogenous in cells
T1 sequence (P13612 34-1032): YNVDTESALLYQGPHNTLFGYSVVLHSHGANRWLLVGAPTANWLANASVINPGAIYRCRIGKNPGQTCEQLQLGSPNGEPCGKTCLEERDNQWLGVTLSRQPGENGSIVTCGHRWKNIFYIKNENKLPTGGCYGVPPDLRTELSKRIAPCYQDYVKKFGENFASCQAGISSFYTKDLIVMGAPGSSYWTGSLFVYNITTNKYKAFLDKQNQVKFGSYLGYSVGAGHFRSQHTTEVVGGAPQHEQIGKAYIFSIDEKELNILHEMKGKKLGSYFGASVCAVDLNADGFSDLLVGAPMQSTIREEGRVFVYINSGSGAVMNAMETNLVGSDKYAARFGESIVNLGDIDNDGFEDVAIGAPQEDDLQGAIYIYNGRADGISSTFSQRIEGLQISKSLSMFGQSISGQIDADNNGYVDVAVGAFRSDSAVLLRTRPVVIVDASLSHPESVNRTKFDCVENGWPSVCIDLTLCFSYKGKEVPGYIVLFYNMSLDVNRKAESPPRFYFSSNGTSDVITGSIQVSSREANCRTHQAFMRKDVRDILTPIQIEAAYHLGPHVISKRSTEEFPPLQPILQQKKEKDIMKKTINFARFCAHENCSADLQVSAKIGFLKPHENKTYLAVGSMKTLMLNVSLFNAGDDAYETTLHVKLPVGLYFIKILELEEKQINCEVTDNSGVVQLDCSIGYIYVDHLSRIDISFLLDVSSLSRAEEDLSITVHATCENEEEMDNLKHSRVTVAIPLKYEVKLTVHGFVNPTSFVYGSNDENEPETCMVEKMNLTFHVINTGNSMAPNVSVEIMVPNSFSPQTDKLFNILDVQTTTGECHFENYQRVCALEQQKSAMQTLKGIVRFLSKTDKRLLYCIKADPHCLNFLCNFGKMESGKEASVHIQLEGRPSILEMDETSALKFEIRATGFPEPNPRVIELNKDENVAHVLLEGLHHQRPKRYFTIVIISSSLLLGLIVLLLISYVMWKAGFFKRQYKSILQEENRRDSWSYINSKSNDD
T1 sequence (P26010 20-798): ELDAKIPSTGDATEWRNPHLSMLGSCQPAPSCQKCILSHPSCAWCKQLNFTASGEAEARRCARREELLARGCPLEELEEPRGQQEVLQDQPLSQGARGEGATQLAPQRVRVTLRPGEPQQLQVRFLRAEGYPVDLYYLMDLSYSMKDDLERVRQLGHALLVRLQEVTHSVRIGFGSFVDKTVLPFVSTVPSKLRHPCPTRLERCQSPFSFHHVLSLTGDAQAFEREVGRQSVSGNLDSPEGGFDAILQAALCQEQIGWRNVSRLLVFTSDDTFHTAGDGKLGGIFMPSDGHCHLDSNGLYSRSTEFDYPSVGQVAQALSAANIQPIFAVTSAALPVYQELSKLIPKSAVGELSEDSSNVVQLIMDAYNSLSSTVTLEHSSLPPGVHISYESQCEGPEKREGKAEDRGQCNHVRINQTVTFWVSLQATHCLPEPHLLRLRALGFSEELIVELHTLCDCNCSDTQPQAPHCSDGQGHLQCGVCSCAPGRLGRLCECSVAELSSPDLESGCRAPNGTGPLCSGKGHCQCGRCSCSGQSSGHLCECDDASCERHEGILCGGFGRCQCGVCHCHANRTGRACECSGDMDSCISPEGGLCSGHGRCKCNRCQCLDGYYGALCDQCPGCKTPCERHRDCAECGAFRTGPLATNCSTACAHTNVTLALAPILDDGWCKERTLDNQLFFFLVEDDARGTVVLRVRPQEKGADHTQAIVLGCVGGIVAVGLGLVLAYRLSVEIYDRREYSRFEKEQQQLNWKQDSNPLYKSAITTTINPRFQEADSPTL

SMILES	IC50 [1]	melting point
COc1ccccc1-c1ccc(C[C@H](NC(=O)c2ccc(NC(=S)Nc3ccccc3)cc2Cl)C(=O)O)cc1 [Example 197]	300 to 1000 nM	145 to 146 °C
CCc1cc(C[C@H](NC(=O)c2c(Cl)cccc2Cl)C(=O)O)ccc1-c1ccccc1OC [Example 296, N-(2,6-Dichlorobenzoyl)-3-ethyl-4-(2-methoxyphenyl)-L-phenylalanine]	< 300 nM	105 to 107 °C
COc1ccccc1-c1ccc(C[C@H](NC(=O)c2ccc(Br)cc2Cl)C(=O)O)cc1 [Example 212]	1000 to 5000 nM	62 to 63 °C
COc1cccc(OC)c1-c1ccc(C[C@H](NC(=O)c2c(Cl)cc(NC(=O)Nc3ccccc3C)cc2Cl)C(=O)O)cc1 [Example 202]	< 300 nM	182 to 184 °C
CON=C(C)c1cc(C[C@H](NC(=O)c2c(Cl)cccc2Cl)C(=O)O)ccc1-c1ccccc1OC [Example 352, N-(2,6-Dichlorobenzoyl)-3-[1-(methoxyimino)ethyl]-4-(2-methoxyphenyl)-L-phenylalanine]	300 to 1000 nM	106.8 °C
COc1ccccc1-c1ccc(C[C@@H](NC(=O)c2c(Cl)cccc2Cl)C(=O)O)cc1 [Example 5, N-(2,6-Dichlorobenzoyl)-4-(2-methoxyphenyl)-D-phenylalanine]	1000 to 5000 nM	195 °C
N#CCOc1cccc(OCC#N)c1-c1ccc(C[C@H](NC(=O)c2c(Cl)cccc2Cl)C(=O)O)cc1 [Example 231]	< 300 nM	175 to 176 °C
CC(=O)c1ccc(-c2ccc(C[C@H](NC(=O)c3c(Cl)cccc3Cl)C(=O)O)cc2)s1 [Example 215, N-(2,6-Dichlorobenzoyl)-4-(5-acetyl-2-thienyl)-L-phenylalanine]	300 to 1000 nM	194 to 195 °C
O=C(N[C@@H](Cc1ccc(-c2c(OCC(F)(F)F)cccc2OCC(F)(F)F)cc1)C(=O)O)c1c(Cl)cccc1Cl [Example 230]	300 to 1000 nM	93 to 94 °C
CCOC(=O)Nc1cc(C[C@H](NC(=O)c2c(Cl)cccc2Cl)C(=O)O)ccc1-c1c(OC)cccc1OC [Example 299]	< 300 nM	216 to 217 °C
COc1cc(C)cc(OC)c1-c1ccc(C[C@H](NC(=O)c2c(Cl)cccc2Cl)C(=O)O)cc1 [Example 148]	< 300 nM	233 to 234 °C
COc1ccc2c(c1-c1ccc(C[C@H](NC(=O)c3c(Cl)cccc3Cl)C(=O)O)cc1)OCCO2 [Example 241, N-(2,6-Dichlorobenzoyl)-4-(2,3-ethylenedioxy-6-methoxyphenyl)-L-phenylalanine]	< 300 nM	218 °C
COc1cc(CN2CC[S+]([O-])CC2)cc(OC)c1-c1ccc(C[C@H](NC(=O)c2c(Cl)cccc2Cl)C(=O)O)cc1 [Example 263B, N-(2,6-Dichlorobenzoyl)-4-[2,6-dimethoxy-4-(thiomorpholinomethyl)phenyl]-L-phenylalanine S-oxide]	< 300 nM	162.8 °C
COc1cccc(OC)c1-c1ccc(C[C@H](NC(=O)c2c(Cl)cc(O)cc2Cl)C(=O)O)cc1 [Example 208]	< 300 nM	252 to 253 °C
CCNC(=S)Nc1ccc(C(=O)N[C@@H](Cc2ccc(-c3ccccc3OC)cc2)C(=O)O)c(Cl)c1 [Example 196]	< 300 nM	155 to 156 °C
COc1cccc(OC)c1-c1ccc(C[C@H](NC(=O)c2c(Cl)cccc2Cl)C(=O)O)s1 [Example 294, N-(2,6-Dichlorobenzoyl)-3-[5-(2,6-dimethoxyphenyl)-2-thienyl]-L-alanine]	1000 to 5000 nM	134 °C (dec.)
COc1cccc(OC)c1-c1ccc(C[C@H](NC(=O)c2c(Cl)cc(N)cc2Cl)C(=O)O)cc1 [Example 206, N-(4-Amino-2,6-dichlorobenzoyl)-4-(2,6-dimethoxyphenyl)-L-phenylalanine]	< 300 nM	221 to 222 °C (dec.)

The remaining lines, values ahead:

IC50 [1]	melting point	SMILES
< 300 nM	277 to 278 °C	COc1cc(C(=O)O)cc(OC)c1-c1ccc(C[C@H](NC(=O)c2c(Cl)cccc2Cl)C(=O)O)cc1 [Example 172, N-(2,6-Dichlorobenzoyl)-4-(4-carboxy-2,6-dimethoxyphenyl)-L-phenylalanine]
< 300 nM	251 to 252 °C	CNC(=O)c1cc(OC)c(-c2ccc(C[C@H](NC(=O)c3c(Cl)cccc3Cl)C(=O)O)cc2)c(OC)c1 [Example 165, N-(2,6-Dichlorobenzoyl)-4-(4-methylcarbamoyl-2,6-dimethoxyphenyl)-L-phenylalanine]
< 300 nM	262 to 263 °C (dec.)	C=CCNc1cc(OC)c(-c2ccc(C[C@H](NC(=O)c3c(Cl)cccc3Cl)C(=O)O)cc2)c(OC)c1 [Example 156, N-(2,6-Dichlorobenzoyl)-4-(4-allylamino-2,6-dimethoxyphenyl)-L-phenylalanine]
< 300 nM	141.9 °C	COc1cccc(OC)c1-c1ccc(C[C@H](NC(=O)c2c(Cl)cc(-c3nccs3)cc2Cl)C(=O)O)cc1 [Example 306, N-[4-(1,3-thiazol-2-yl)-2,6-dichlorobenzoyl]-4-(2,6-dimethoxyphenyl)-L-phenylalanine]
< 300 nM	117 to 119 °C	CCC(O)c1cc(C[C@H](NC(=O)c2c(Cl)cccc2Cl)C(=O)O)ccc1-c1ccccc1OC (stereo partly shown) [Example 341]
< 300 nM	194.9 °C	COc1cc(CCN2CCCCC2)cc(OC)c1-c1ccc(C[C@H](NC(=O)c2c(Cl)cccc2Cl)C(=O)O)cc1 [Example 265, N-(2,6-Dichlorobenzoyl)-4-[2,6-dimethoxy-4-(2-piperidinoethyl)phenyl]-L-phenylalanine]
< 300 nM	219 to 221 °C	COc1cc(C(=O)N(C)C)cc(OC)c1-c1ccc(C[C@H](NC(=O)c2c(Cl)cccc2Cl)C(=O)O)cc1 [Example 166]
< 300 nM	197 to 198 °C	CNC(=S)Nc1cc(OC)c(-c2ccc(C[C@H](NC(=O)c3c(Cl)cccc3Cl)C(=O)O)cc2)c(OC)c1 [Example 162, N-(2,6-Dichlorobenzoyl)-4-[2,6-dimethoxy-4-(3-methylthioureido)phenyl]-L-phenylalanine]
< 300 nM	154 to 155 °C	COc1cc(NS(C)(=O)=O)cc(OC)c1-c1ccc(C[C@H](NC(=O)c2c(Cl)cccc2Cl)C(=O)O)cc1 [Example 163, N-(2,6-Dichlorobenzoyl)-4-[2,6-dimethoxy-4-[(methylsulfonyl)amino]phenyl]-L-phenylalanine]
< 300 nM	145.7 °C	COc1cccc(OC)c1-c1ccc(C[C@H](NC(=O)c2c(Cl)cc(-c3cnccn3)cc2Cl)C(=O)O)cc1 [Example 308, N-[4-(2-Pyrazinyl)-2,6-dichlorobenzoyl]-4-(2,6-dimethoxyphenyl)-L-phenylalanine]
< 300 nM	235 to 236 °C	COC(=O)Nc1cc(OC)c(-c2ccc(C[C@H](NC(=O)c3c(Cl)cccc3Cl)C(=O)O)cc2)c(OC)c1 [Example 158, N-(2,6-Dichlorobenzoyl)-4-(4-methoxycarbonylamino-2,6-dimethoxyphenyl)-L-phenylalanine]
< 300 nM	184 to 185 °C	COc1cccc(OC)c1-c1ccc(C[C@H](NC(=O)c2c(Cl)cc(Br)cc2Cl)C(=O)O)cc1 [Example 207]
